Laboratory results taken from paper PMC11912475 (Journal of Medicinal Chemistry, 2025).

Assays:
[1] = biological target: GluN1-GluN2C NMDAR subtype (Homo sapiens, UniProt Q05586+Q14957); assay: FLIPR/Ca2+ assay, NMDAR GluN1-GluN2C subtype in CHO cells; type: cell-based; conditions: CHO cells, 10 μM L-glutamate and 10 μM glycine, n.d. = 50% of inhibition could not be reached at the highest concentration used
Method: (§1) These compounds were assessed for their effects on specific heterodimeric NMDAR subtypes stably overexpressed in Chinese Hamster Ovary (CHO) cells. The subtypes tested included GluN1-GluN2A, GluN1-GluN2B, GluN1-GluN2C, and GluN1-GluN2D. CHO cells expressing each of the four NMDAR subtypes were incubated with 10 μM L-glutamate, a concentration known to elicit maximal Ca^2+ influx, serving as the stimulus. Intracellular Ca^2+ levels were subsequently measured to determine the extent of NMDAR activation.
(§2) Assay buffer composition was 145 mM NaCl, 5 mM KCl, 2 mM CaCl2, 1 g/Liter D-(+)-glucose, and 20 mM HEPES (pH 7.3 adjusted with NaOH). Cells were plated at a density of 15.000/well in 384 black/clear bottom plates. […] Cells were kept at 30 °C in 5% CO2 incubator for 24 h. Cells were preloaded for 1 h with 2 μM Fluo-4 Ca^2+-sensitive probe, simultaneously with 2.5 mM probenecid, an inhibitor of nonspecific anion transport, and 500 μM ketamine to avoid cytotoxicity. […] Intracellular Ca^2+ level was monitored by FLIPR (excitation wavelength at 470–495 nm, emission wavelength at 515–575 nm) for 10 s before and 5 min after the addition of test items. All test items, including L-glutamate and glycine, were added simultaneously. […] FLIPR data were normalized as 100%, in the presence of 10 μM L-glutamate and 10 μM glycine, while as 0%, in the presence of assay buffer. […] Then, data were normalized by Excel 2013 (Microsoft Office) software, using wells added with 10 μM L-glutamate plus 10 μM glycine (column 23) as high control, and wells added with assay buffer only (column 24) as low control. To assess plate quality, Z′ calculations were performed in Excel. Z′ was calculated according to following equation: Z′ = 1–3(σh + σl)/|μh – μL| where μ and σ are the means and the standard deviations of the means of high (h) and low (l) controls, respectively. Compound concentration–response curves were plotted by Prism 8 GraphPad software, in the different experimental conditions (see Supporting Information). Data were analyzed using least-squares regression fitting, to fit data to a standard four parameters logistic equation using GraphPad Prism10. This regression fitting allowed the calculation of pIC50 and the corresponding SEM.

[2] = biological target: GluN1-GluN2D NMDAR subtype (Homo sapiens, UniProt O15399+Q05586); assay: FLIPR/Ca2+ assay, NMDAR GluN1-GluN2D subtype in CHO cells; type: cell-based; conditions: CHO cells, 10 μM L-glutamate and 10 μM glycine, n.d. = 50% of inhibition could not be reached at the highest concentration used
Method: as §1, §2

[3] = biological target: T1, GluN1-GluN2B NMDAR subtype (Homo sapiens, UniProt Q05586+Q13224); assay: FLIPR/Ca2+ assay, NMDAR GluN1-GluN2B subtype in CHO cells; type: cell-based; conditions: CHO cells, 10 μM L-glutamate and 10 μM glycine, n.d. = 50% of inhibition could not be reached at the highest concentration used
T1 construct: host or cells: NR1-2B-CHO cells, constitutive expression
Method: as §1, §2

Serotonin 5-HT2C = biological target: T2, Serotonin 5-HT2C (Homo sapiens, UniProt P28335); assay: Radioligand displacement binding assay, [3H]mesulergine, 5-HT2C
T2 construct: host or cells: CHO-K1
T2 sequence (P28335 33-458): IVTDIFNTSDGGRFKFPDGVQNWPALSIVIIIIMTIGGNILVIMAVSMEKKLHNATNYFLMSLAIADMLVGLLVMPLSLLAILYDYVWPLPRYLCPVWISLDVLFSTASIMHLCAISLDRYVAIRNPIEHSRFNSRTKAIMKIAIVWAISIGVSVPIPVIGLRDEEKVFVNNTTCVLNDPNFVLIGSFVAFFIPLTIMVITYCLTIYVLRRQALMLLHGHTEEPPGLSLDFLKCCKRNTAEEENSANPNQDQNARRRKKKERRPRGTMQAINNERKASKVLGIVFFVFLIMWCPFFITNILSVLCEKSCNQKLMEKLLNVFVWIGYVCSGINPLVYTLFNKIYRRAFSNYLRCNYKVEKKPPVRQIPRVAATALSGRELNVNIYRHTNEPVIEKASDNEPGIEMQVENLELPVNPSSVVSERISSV

Serotonin 5-HT5A = biological target: T3, Serotonin 5-HT5A (Homo sapiens, UniProt P47898); assay: Radioligand displacement binding assay, [3H]LSD, 5-HT5A
T3 construct: host or cells: CHO-K1

Serotonin 5-HT7 = biological target: T4, Serotonin 5-HT7 (Homo sapiens, UniProt P34969); assay: Radioligand displacement binding assay, [3H]LSD, 5-HT7
T4 construct: host or cells: CHO-K1

Serotonin 5-HT2A = biological target: T5, Serotonin 5-HT2A (Homo sapiens, UniProt P28223); assay: Radioligand displacement binding assay, [3H]ketanserin, 5-HT2A
T5 construct: host or cells: CHO-K1

Histamine H1 = biological target: T6, Histamine H1 (Homo sapiens, UniProt P35367); assay: Radioligand displacement binding assay, [3H]pyrilamine, H1; conditions: for displacement at the histamine H1 receptor, in words: concentration not given
T6 construct: host or cells: CHO-K1

μ opioid receptor (MOP) = biological target: T7, μ opioid receptor (MOP) (Homo sapiens, UniProt P35372); assay: biochemical; type: binding; conditions: read-out: % inhibition of binding, MOP
T7 construct: host or cells: CHO-K1

[4] = biological target: T8, Norepinephrine transporter NET (Homo sapiens, UniProt P23975); assay: Radioligand displacement binding assay, [125I]RTI-55, NET
T8 construct: host or cells: MDCK

Muscarinic M5 = biological target: T9, Muscarinic M5 (Homo sapiens, UniProt P08912); assay: Radioligand displacement binding assay, [3H]N-methylscopolamine, M5
T9 construct: host or cells: CHO-K1
T9 sequence (P08912 1-532): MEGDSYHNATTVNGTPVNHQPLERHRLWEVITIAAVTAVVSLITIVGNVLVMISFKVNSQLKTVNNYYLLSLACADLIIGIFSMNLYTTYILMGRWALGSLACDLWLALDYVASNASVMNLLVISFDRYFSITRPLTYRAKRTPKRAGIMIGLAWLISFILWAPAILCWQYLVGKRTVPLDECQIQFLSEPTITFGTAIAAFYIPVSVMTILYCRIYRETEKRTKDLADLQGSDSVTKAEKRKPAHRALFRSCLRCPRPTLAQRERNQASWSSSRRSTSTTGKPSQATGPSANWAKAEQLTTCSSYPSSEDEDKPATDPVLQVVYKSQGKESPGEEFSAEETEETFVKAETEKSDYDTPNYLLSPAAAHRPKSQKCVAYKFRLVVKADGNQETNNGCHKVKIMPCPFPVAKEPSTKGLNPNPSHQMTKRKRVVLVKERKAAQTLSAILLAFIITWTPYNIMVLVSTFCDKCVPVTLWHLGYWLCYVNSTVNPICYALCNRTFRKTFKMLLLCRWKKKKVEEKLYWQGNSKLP

Sigma σ1 = biological target: T10, Sigma σ1 (Homo sapiens, UniProt Q99720); assay: Radioligand displacement binding assay, [3H]pentazocine, sigma σ1
T10 construct: Sigma σ1; Source: Human Jurkat cells; host or cells: Jurkat

[5] = biological target: GluN1-GluN2A NMDAR subtype (Homo sapiens, UniProt Q05586+Q12879); assay: FLIPR/Ca2+ assay, NMDAR GluN1-GluN2A subtype in CHO cells; type: cell-based; conditions: CHO cells, 10 μM L-glutamate and 10 μM glycine; n.d. = 50% of inhibition could not be reached at the highest concentration used
Method: as §1, §2

[6] = system: Glutamate, NMDA, Phencyclidine binding site; assay: Radioligand displacement binding assay, [3H]TCP, NMDA; set-up: species or system Wistar rat
[7] = biological target: T11, Serotonin transporter SERT (Homo sapiens, UniProt P31645); assay: Radioligand displacement binding assay, [3H]paroxetine, SERT
T11 construct: host or cells: HEK-293

Serotonin 5-HT1A = biological target: T12, Serotonin 5-HT1A (Homo sapiens, UniProt P08908); assay: Radioligand displacement binding assay, [3H]8-OH-DPAT, 5-HT1A
T12 construct: host or cells: CHO-K1
T12 sequence (P08908 1-422): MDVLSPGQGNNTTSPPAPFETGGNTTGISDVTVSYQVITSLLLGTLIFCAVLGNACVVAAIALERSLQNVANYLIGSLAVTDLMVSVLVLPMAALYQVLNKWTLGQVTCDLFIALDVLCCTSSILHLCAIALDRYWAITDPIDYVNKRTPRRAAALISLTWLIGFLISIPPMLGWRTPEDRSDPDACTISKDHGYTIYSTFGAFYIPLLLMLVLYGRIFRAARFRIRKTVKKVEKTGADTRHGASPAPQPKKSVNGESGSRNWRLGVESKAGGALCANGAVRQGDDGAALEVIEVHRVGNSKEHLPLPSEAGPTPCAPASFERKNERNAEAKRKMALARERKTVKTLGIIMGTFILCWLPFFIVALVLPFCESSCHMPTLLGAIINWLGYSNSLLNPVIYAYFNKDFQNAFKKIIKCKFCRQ

T8 sequence (P23975 whole entry): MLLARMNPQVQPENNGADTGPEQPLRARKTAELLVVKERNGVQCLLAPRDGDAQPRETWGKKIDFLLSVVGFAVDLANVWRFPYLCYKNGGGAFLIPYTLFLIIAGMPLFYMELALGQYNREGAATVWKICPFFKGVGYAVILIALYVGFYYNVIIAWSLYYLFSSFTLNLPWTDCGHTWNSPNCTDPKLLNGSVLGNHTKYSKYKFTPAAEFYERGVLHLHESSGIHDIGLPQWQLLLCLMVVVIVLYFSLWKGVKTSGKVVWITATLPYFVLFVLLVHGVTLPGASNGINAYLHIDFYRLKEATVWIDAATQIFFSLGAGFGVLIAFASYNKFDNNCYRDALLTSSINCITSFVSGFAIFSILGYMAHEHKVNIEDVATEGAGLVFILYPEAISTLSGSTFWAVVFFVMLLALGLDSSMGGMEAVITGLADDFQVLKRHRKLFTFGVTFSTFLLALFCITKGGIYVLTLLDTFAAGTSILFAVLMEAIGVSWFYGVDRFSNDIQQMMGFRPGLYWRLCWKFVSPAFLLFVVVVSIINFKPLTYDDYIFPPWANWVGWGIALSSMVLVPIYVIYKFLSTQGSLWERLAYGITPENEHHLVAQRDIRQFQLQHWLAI
T4 sequence (P34969 whole entry): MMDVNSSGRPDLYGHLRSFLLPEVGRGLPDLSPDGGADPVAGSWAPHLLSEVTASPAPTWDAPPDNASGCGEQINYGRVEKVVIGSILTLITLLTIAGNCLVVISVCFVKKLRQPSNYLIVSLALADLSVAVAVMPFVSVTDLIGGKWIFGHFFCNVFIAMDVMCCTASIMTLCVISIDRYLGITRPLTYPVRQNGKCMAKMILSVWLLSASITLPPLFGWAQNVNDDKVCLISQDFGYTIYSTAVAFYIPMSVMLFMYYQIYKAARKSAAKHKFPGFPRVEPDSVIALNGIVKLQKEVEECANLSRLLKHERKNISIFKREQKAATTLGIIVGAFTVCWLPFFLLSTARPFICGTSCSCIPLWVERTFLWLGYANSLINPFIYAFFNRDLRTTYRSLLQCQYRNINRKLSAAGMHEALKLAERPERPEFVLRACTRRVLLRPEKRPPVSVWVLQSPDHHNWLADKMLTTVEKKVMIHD
T3 sequence (P47898 whole entry): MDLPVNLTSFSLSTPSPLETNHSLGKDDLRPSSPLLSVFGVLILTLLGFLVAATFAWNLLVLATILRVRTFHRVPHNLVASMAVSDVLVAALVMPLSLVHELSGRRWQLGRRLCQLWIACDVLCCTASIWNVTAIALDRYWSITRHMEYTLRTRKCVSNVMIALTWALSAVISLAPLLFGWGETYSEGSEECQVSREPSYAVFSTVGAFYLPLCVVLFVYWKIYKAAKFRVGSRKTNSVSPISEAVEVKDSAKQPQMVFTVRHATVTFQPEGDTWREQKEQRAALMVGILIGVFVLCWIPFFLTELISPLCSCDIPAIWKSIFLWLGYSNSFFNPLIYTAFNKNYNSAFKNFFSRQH
T11 sequence (P31645 whole entry): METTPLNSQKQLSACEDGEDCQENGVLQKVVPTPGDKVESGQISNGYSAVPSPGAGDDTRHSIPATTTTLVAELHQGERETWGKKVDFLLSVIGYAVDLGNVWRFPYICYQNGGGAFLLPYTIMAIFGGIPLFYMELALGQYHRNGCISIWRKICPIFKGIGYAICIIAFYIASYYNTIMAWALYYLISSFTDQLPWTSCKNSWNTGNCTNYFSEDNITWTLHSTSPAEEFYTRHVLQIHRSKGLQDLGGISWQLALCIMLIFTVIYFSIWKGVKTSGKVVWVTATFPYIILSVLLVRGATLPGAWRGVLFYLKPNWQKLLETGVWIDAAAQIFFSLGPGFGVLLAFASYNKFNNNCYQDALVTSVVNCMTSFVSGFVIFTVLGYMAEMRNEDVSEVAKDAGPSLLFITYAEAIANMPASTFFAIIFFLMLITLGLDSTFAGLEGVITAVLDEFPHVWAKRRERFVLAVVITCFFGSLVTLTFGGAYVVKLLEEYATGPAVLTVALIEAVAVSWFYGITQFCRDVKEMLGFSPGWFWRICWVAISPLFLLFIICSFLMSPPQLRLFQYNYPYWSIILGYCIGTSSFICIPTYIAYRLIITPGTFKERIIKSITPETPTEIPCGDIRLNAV
T6 sequence (P35367 whole entry): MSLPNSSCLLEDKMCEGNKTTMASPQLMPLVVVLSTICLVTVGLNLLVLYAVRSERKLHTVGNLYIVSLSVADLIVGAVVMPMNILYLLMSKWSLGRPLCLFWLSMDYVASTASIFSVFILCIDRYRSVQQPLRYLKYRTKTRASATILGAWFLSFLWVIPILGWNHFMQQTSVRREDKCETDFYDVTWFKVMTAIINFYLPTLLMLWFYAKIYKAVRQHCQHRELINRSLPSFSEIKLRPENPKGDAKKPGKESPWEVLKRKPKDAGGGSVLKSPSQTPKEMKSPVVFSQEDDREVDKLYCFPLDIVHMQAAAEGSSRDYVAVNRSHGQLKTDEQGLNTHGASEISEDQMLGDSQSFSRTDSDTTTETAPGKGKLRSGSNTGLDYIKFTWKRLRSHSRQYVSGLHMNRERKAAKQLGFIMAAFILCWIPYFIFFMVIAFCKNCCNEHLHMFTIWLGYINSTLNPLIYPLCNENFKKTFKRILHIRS
T5 sequence (P28223 whole entry): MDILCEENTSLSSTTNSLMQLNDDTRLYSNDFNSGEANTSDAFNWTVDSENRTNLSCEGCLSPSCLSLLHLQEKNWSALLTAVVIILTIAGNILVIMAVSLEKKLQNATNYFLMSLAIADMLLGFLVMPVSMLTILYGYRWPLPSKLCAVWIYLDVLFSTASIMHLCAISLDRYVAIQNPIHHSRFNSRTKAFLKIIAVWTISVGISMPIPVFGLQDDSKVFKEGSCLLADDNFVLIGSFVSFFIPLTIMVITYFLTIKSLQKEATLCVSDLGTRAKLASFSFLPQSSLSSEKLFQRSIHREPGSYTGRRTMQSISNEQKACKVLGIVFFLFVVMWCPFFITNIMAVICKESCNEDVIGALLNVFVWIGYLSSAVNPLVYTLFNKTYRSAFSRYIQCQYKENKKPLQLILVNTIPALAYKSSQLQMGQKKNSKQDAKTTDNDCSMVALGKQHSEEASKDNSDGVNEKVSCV
Chain of GluN1-GluN2D NMDAR subtype (O15399 28-1336, other chains not shown): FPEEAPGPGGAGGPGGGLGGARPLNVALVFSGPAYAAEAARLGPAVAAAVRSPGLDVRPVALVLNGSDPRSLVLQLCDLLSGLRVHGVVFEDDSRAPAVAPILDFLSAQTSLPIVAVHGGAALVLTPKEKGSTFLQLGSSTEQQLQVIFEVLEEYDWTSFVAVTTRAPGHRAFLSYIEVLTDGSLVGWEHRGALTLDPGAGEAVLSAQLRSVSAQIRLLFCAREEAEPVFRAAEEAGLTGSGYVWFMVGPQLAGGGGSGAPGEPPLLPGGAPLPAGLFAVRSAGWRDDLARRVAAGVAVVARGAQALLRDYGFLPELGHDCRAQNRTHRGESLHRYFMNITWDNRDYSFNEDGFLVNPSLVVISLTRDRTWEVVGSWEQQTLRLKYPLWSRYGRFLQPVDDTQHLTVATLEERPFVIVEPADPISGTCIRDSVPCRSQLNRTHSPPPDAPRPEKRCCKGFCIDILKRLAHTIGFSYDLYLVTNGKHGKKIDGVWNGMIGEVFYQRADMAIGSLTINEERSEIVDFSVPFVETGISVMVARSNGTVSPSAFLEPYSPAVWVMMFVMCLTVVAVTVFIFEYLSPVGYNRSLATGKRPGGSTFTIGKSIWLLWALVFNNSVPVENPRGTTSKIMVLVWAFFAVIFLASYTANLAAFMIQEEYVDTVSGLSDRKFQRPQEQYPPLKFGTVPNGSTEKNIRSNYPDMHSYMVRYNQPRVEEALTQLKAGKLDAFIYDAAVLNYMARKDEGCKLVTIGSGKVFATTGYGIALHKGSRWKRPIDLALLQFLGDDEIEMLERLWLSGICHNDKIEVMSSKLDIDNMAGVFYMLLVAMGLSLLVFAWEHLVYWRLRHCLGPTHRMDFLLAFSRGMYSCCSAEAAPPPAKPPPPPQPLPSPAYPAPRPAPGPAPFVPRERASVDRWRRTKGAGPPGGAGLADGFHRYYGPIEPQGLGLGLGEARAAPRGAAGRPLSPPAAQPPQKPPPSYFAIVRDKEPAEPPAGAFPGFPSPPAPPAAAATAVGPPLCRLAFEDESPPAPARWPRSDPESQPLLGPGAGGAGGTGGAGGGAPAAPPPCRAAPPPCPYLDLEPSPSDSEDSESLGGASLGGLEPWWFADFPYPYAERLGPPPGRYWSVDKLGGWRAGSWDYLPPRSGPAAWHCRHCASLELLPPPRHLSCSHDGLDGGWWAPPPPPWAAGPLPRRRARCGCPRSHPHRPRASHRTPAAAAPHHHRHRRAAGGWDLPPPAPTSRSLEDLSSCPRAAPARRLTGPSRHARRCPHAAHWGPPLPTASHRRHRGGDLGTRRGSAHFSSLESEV
T10 sequence (Q99720 whole entry): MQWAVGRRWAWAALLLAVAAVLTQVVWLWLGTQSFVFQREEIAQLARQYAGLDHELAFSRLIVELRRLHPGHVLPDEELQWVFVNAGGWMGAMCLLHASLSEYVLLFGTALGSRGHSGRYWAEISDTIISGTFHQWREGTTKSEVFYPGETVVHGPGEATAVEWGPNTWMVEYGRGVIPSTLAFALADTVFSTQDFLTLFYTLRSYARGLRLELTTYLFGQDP
T7 sequence (P35372 whole entry): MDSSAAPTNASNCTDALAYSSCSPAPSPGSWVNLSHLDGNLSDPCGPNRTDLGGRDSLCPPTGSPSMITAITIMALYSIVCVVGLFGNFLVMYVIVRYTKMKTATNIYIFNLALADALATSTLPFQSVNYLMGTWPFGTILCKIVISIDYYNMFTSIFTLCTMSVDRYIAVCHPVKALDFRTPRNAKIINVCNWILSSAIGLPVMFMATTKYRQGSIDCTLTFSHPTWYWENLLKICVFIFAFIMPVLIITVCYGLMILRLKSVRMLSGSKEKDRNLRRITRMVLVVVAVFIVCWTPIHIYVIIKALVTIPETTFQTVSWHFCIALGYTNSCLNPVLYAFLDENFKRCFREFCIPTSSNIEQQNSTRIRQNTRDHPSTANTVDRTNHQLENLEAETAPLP

SMILES	pIC50 (mean ± SEM) GluN1-GluN2C [1]	pIC50 (mean ± SEM) GluN1-GluN2D [2]	inhibition at 0.3 µM (Serotonin 5-HT2C)	inhibition at 3 µM (Serotonin 5-HT2C)	inhibition at 1 µM (Serotonin 5-HT5A)	inhibition at 10 µM (Serotonin 5-HT5A)	inhibition at 1 µM (Serotonin 5-HT7)	inhibition at 10 µM (Serotonin 5-HT7)	inhibition at 0.3 µM (Serotonin 5-HT2A)	inhibition at 3 µM (Serotonin 5-HT2A)	inhibition at 10 µM (Histamine H1)	inhibition at 30 µM (Histamine H1)	displacement at the histamine H1 receptor, in words (Histamine H1)	inhibition at 1 µM [4]	inhibition at 10 µM [4]	inhibition at 1 µM (Muscarinic M5)	inhibition at 10 µM (Muscarinic M5)	inhibition at 0.3 µM (Sigma σ1)	inhibition at 3 µM (Sigma σ1)	inhibition at 1 µM [7]	further results
C[C@]12N[C@H](Cc3ccccc31)c1ccccc12 [(+)-MK-801, reference compound]	6.2 ± 0.064	6.1 ± 0.58																			pIC50 (mean ± SEM) GluN1-GluN2B [3]: 7.2 ± 0.067
CCC1=[N+](C)[C@H](C)CC1(c1ccccc1)c1ccccc1.[Cl-] [(R)-EDDP, 2-Ethyl-1,5-dimethyl-3,3-diphenyl-3,4-dihydro-5H-pyrrolium chloride]	4.3 ± 0.056	4.3 ± 0.060																			
CCC1=N[C@H](C)CC1(c1ccccc1)c1ccccc1 [(R)-EMDP, 5-Ethyl-2-methyl-4,4-diphenyl-3,4-dihydro-2H-pyrrole]			2%	7%	1%	0%	0%	8%	4%	14%	24%	62%	significant displacement percentages	-5%	27%	6%	3%	11%	49%	3%	inhibition at 0.3 µM (μ opioid receptor (MOP); 0.3 μM): -4%; inhibition at 3 µM (μ opioid receptor (MOP); 3 μM): 8%; pIC50 (mean ± SEM) GluN1-GluN2A [5]: 4.8 ± 0.088; % inhibition of binding, NMDA ([6]; 1 μM): 12%; % inhibition of binding, NMDA ([6]; 10 μM): 4%; inhibition at 10 µM [7]: 7%; inhibition at 0.3 µM (Serotonin 5-HT1A): 0%; inhibition at 3 µM (Serotonin 5-HT1A): 7%
CCC1=N[C@@H](C)CC1(c1ccccc1)c1ccccc1 [(S)-EMDP, 5-Ethyl-2-methyl-4,4-diphenyl-3,4-dihydro-2H-pyrrole]																					IC50 ([1]; read-out: pIC50 (mean ± SEM) GluN1-GluN2C (converted)): > 100 µM; IC50 ([2]; read-out: pIC50 (mean ± SEM) GluN1-GluN2D (converted)): > 100 µM; IC50 ([3]; read-out: pIC50 (mean ± SEM) GluN1-GluN2B (converted)): > 100 µM
CCC(=O)C(C[C@H](C)N(C)C)(c1ccccc1)c1ccccc1 [(S)-methadone, 6-(Dimethylamino)-4,4-diphenylheptan-3-one, reference compound]			30%	77%	24%	70%	12%	58%	22%	72%	50%	73%	significant displacement percentages	5%	17%	25%	73%	23%	70%	21%	activity on 5-HT2A, in words (Serotonin 5-HT2A; concentration not given): appreciable activity; inhibition at 10 µM [7]: 74%; inhibition at 0.3 µM (Serotonin 5-HT1A): -2%; inhibition at 3 µM (Serotonin 5-HT1A): 2%
